Results reported in patent US20060275170A1, “Method for terminal sterilization of transdermal delivery devices” (priority 2005, published 2006).
Entries after “also recorded” stand apart in the source; their conditions may differ.

Assays:
Assay type in all cases: physicochemical
[1] = Example 2: purity and oxidation of coated hPTH after gamma irradiation or ethylene oxide sterilization; packaging and antioxidants varied (RP-HPLC, SEC-HPLC); conditions: for degradation: glass vial
Description: Formulations of hPTH(1-34) were prepared as set forth in Example 1, and coated on microprojection arrays. In addition to the standard 1:1 sucrose:hPTH formulations discussed above, the effect of antioxidants was assessed by adding to selected samples 5% w/w methionine or 3.3% w/w ascorbic acid. The coated arrays were placed in nitrogen purged heat-sealed foil pouches or glass vials. Also, one of the samples was subjected to ethylene oxide sterilization as a comparison. The remaining samples were subjected to dose of gamma radiation of either 7, 14 or 21 kGy under dry ice or an ambient temperature. As discussed above, the purity and degradation of the PTH formulations was assessed using RP-HPLC and SEC-HPLC.

[2] = Example 4: purity of coated hPTH(1-34) after 15 kGy gamma or e-beam; desiccant, temperature and sucrose content varied (RP-HPLC, SEC-HPLC)
Description: In this example, formulations of hPTH(1-34) were prepared, comprising 20% w/w HPTH, 20% sucrose or 40% sucrose, 0.2% polysorbate 20 and 0.03% EDTA. The arrays were assembled with a polycarbonate retainer ring and an adhesive. The arrays were sealed in foil pouches purged with nitrogen. Certain samples included a 4 Å molecular seive desiccant. The arrays were exposed to 15 kGy of gamma or e-beam radiation at under dry ice, 2-8° C. or an ambient temperature. As discussed above, the purity and degradation of the PTH formulations was assessed using RP-HPLC and SEC-HPLC.

[3] = Example 3: purity and oxidation of coated hPTH(1-34) after gamma irradiation; packaging, purge gas and temperature varied (RP-HPLC, SEC-HPLC)
Description: Formulations of hPTH(1-34) were prepared as set forth in Example 1, and coated on microprojection arrays. Certain arrays were assembled with a polycarbonate retainer ring and an adhesive. The arrays were sealed in foil pouches purged with nitrogen or ambient air or in glass vials. The arrays were exposed to 14 or 21 kGy of gamma radiation under dry ice or an ambient temperature. As discussed above, the purity and degradation of the PTH formulations was assessed using RP-HPLC and SEC-HPLC.

[4] = Example 1: purity and degradation products of hPTH(1-34) coated microprojection arrays after gamma or e-beam irradiation (RP-HPLC and SEC-HPLC)
Description: Validation reverse-phase and size-exclusion high pressure liquid chromatography (RP-HPLC and SEC-HPLC, respectively) were used to quantify PTH oxidation resulting from exposure to the sterilizing radiation. Formulations of hPTH(1-34) were prepared, comprising 20% w/w HPTH, 20% sucrose, 0.2% polysorbate 20 and 0.03% EDTA. The PTH formulations were coated onto microprojection arrays, which were then enclosed in glass vials. The coated arrays were irradiated with 7, 14 or 21 kGy radiation doses, from either gamma radiation or e-beam, under dry ice or an ambient temperature. […] Tables 1 and 2 give the data corresponding to the purity and degradation products for gamma radiation and e-beam, respectively.

Compound: CC[C@H](C)[C@H](NC(=O)[C@H](CCC(=O)O)NC(=O)[C@H](CO)NC(=O)[C@@H](NC(=O)[C@@H](N)CO)C(C)C)C(=O)N[C@@H](CCC(N)=O)C(=O)N[C@@H](CC(C)C)C(=O)N[C@@H](CCSC)C(=O)N[C@@H](Cc1cnc[nH]1)C(=O)N[C@@H](CC(N)=O)C(=O)N[C@@H](CC(C)C)C(=O)NCC(=O)N[C@@H](CCCCN)C(=O)N[C@@H](Cc1cnc[nH]1)C(=O)N[C@@H](CC(C)C)C(=O)N[C@@H](CC(N)=O)C(=O)N[C@@H](CO)C(=O)N[C@@H](CCSC)C(=O)N[C@@H](CCC(=O)O)C(=O)N[C@@H](CCCN=C(N)N)C(=O)N[C@H](C(=O)N[C@@H](CCC(=O)O)C(=O)N[C@@H](Cc1c[nH]c2ccccc12)C(=O)N[C@@H](CC(C)C)C(=O)N[C@@H](CCCN=C(N)N)C(=O)N[C@@H](CCCCN)C(=O)N[C@@H](CCCCN)C(=O)N[C@@H](CC(C)C)C(=O)N[C@@H](CCC(N)=O)C(=O)N[C@@H](CC(=O)O)C(=O)N[C@H](C(=O)N[C@@H](Cc1cnc[nH]1)C(=O)N[C@@H](CC(N)=O)C(=O)N[C@@H](Cc1ccccc1)C(=O)O)C(C)C)C(C)C [hPTH(1-34)]
- deamidation and aggregation degradation products ([1]; FIG. 8): not prominent
- degradation ([1]; ethylene oxide sterilization): considerable degradation; also recorded: severe
- morphology ([1]; ethylene oxide sterilized sample): altered substantially
- degradation ([1]; gamma 21 kGy, ambient temperature, FIG. 8): severe
- oxidation ([1]; gamma irradiated samples packaged in nitrogen purged foil pouches): minimal oxidation
- purity of hPTH ([1]; gamma radiation, samples other than 21 kGy glass vial ambient (foil pouch, dry ice, 7 or 14 kGy), FIG. 7): comparable to that of the controls
- impact of amount of sucrose on stability during irradiation ([2]; 1:1 versus 2:1 sucrose:hPTH, gamma or e-beam, FIG. 15): did not have a significant impact
- degradation, e-beam sterilization versus gamma irradiation ([2]; 15 kGy, same temperature, FIG. 13): less degradation
- degradation ([2]; sample without a desiccant, 15 kGy, FIG. 13): most degradation
- stability following irradiation ([3]; arrays with polycarbonate retainer ring and acrylate adhesive, nitrogen purged foil pouch, 14 and 21 kGy, dry ice, FIG. 12): adequate stability
- oxidation ([3]; gamma 14 kGy, foil pouch sealed with ambient air, dry ice and ambient temperature, FIG. 11): major oxidation
- purity ([3]; gamma 14 kGy, nitrogen purged foil pouch, dry ice and ambient temperature, FIG. 11): comparable to the controls
- increase in oxidation ([3]; gamma 21 kGy, ambient temperature, nitrogen purged foil pouch, FIG. 10): approximately 2%
- oxidation ([3]; gamma 21 kGy, ambient temperature, nitrogen purged glass vial, FIG. 10): approximately 40%
- increase in overall oxidation ([3]; gamma 21 kGy, nitrogen purged foil pouch, ambient temperature): less than 4%
- increase in overall oxidation ([3]; gamma 21 kGy, nitrogen purged foil pouch, dry ice): less than 2%
- loss in purity relative to the control ([3]; gamma 21 kGy, nitrogen purged foil pouch, FIG. 9): did not suffer a significant loss in purity
- loss of purity ([4]; 7 kGy under dry ice, compared with other doses and temperatures): least loss of purity
- degradation (oxidation) ([4]; 21 kGY dose, particularly at an ambient temperature): less degradation
- aggregation following irradiation ([4]; FIG. 6, gamma and e-beam, 7-21 kGy): relatively low
- degradation, e-beam sterilization less than gamma radiation ([4]; at the high radiation doses): 5-10%
- purity of PTH relative to a control formulation ([4]; gamma radiation and e-beam exposure, FIG. 5): decreased
- deamidated products ([4]; irradiated formulations versus control formulation): comparable to the control formulation
